Measurements taken from patent US8410081B2, “Treatment of cystic fibrosis” (Academisch Medisch Centrum, priority 2006, dated 2013).

Tests used:
[1] = biological target: T1, GBA2 (non-lysosomal glucosylceramidase) (Homo sapiens, UniProt Q9HCG7); assay: non-lysosomal glucosylceramidase (GBA2) IC50 determination; assay type: biochemical; details: enzyme preparations exposed to dilutions of inhibitor
T1 construct: host or cells: GBA2 containing membranes
T1 sequence (Q9HCG7 1-927): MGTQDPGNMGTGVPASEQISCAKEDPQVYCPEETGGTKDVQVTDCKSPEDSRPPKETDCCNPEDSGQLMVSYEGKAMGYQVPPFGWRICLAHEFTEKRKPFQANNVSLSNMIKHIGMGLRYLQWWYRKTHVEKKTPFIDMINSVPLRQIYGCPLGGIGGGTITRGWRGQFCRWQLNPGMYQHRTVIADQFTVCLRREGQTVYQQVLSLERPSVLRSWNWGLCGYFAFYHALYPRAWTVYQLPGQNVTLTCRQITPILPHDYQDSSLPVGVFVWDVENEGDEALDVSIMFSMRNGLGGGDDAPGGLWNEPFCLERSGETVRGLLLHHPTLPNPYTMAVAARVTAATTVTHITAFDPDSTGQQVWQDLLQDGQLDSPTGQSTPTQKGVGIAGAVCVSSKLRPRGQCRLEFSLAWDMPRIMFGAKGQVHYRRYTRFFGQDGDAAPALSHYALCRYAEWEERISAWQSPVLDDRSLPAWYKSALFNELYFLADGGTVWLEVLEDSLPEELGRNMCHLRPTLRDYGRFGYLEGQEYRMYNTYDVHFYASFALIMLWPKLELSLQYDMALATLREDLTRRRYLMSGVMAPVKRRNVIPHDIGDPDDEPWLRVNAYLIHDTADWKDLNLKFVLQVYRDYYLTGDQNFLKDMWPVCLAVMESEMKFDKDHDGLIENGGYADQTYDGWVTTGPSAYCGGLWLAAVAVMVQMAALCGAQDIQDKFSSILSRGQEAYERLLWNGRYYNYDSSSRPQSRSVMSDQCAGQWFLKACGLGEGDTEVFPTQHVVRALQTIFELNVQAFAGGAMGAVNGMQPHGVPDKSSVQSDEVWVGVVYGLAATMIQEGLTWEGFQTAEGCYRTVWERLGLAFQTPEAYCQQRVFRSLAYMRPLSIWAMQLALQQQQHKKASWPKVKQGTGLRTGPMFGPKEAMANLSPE

[2] = biological target: T2, glucosylceramide synthase (GCS) (Homo sapiens, UniProt Q16739); assay: glucosylceramide synthase (GCS) IC50 determination; assay type: biochemical; details: for IC50: enzyme preparations exposed to dilutions of inhibitor
T2 sequence (Q16739 1-394): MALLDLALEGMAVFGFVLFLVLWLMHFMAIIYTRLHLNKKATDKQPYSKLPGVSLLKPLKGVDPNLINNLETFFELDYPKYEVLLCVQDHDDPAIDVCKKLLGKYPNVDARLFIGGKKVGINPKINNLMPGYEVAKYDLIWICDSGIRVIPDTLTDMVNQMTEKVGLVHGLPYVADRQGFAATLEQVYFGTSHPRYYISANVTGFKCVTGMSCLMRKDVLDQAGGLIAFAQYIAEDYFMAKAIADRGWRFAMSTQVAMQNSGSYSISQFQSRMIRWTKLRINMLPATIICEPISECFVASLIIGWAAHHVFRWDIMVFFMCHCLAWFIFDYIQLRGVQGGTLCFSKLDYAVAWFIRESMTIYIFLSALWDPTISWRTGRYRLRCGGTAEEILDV

[3] = tested on: delF508-CFTR containing epithelial CF cells (CF15); assay: cAMP-activated chloride current, perforated whole-cell patch-clamp / iodide efflux in CF15 cells; assay type: cell-based, human; details: 10 nM; del F508-CFTR containing epithelial CF cells
Description: The effects of AMP-DNM on cAMP-activated chloride current in delF508-CFTR containing epithelial CF cells were studied with the following assay:
Perforated whole-cell patch-clamp analysis was applied to CF15 cells (human nasal epithelial cell line obtained from delF508 homozygous patient). Patch electrodes (GC150-TF10, Harvard Apparatus, USA) filled with intracellular solution (resistances of 3-4 MΩ) were connected to the RK-400 amplifier (Biologic, France) through an Ag/AgCl pellet. External solution (mM): 145 NaCl, 4 CsCl, 1 MgCl2, 1 CaCl2, 5 d-glucose, 10 TES (pH 7.4, 315 mOsm). Intra-pipette solution (mM): 113 l-aspartic acid, 113 CsOH, 27 CsCl, 1 NaCl, 1 EGTA, 1 MgCl2, 3 Mg-ATP (ex-temporane), 10 TES (pH 7.2 with CsOH, 285 mOsm) and amphotericin B (100 μg/ml) renewed every 2 h. Only cells with input resistance […] were analysed. The mean access resistance and whole cell capacitance were 12±0.6 MΩ and 35±4.3 pF (n=44). Currents were obtained in response to voltage steps from −80 to +80 mV in 20 mV increment. Data were collected using pClamp 6.0.3 package software (Axon Instruments, USA). CFTR Cl^− channel activity was assayed on a cell population by the iodide (^125I) efflux technique.

[4] = tested on: delF508-CFTR in ileal mucosa; assay: intestine explants from ileal mucosa of delF508 mice (short-circuit current, Western blot, immunohistochemistry); details: 10 nM
Experimental: To test the therapeutic potential of GBA2 inhibitors for CF further the effects of AMP-DNM on intestine explants from ileal mucosa of delF508 mice were analysed. The following assay was used:
Rotterdam delF508/delF508-CFTR mice (Cfr^tm1 Eur), their littermate controls (FVB inbred, 14-17 weeks old, weight between 20 and 30 g, kept on solid food in a pathogen-free environment) and Cftr-KO mice (Cftr^tm2 Cam) were used. Muscle-stripped ileal mucosa was incubated in William's E-Glutamax medium supplemented with insulin (10 μg/ml) and dexamethasone (20 μg/ml). At different time points, the compound was removed by repeated washings followed by short-circuit current (Isc) measurements in mini-Ussing chambers. Western blotting was as performed and immunoblots were probed with monoclonal mouse anti-CFTR antibody (10 μg/ml, IgG1 M3A7, Chemicon, USA). The protein levels were expressed as densitometry and percentage of controls. For immunohistochemistry, tissues were fixed in 4% (wt/vol) paraformaldehyde. Sections (5 μm) were stained with the antibody R3195 (1:500).

SMILES | IC50 [1] | IC50 [2] | inhibition of GCS (in words) [2] | restoration of cAMP-activated chloride current, % of normal levels [3] | rescue of delF508-CFTR in intestinal crypts of ileal mucosa [4]
OC[C@@H]1[C@@H](O)[C@H](O)[C@@H](O)CN1CCCCOCC12CC3CC(CC(C3)C1)C2 [N-[5′-(adamantan-1′-yl-methoxy)-butan]-1-deoxynojirimycin] | 0.002 µM | 10 µM | – | – | –
CC(C)(C)COCCCCCN1C[C@H](O)[C@@H](O)[C@H](O)[C@H]1CO [N-[5′-neopentyloxy-pentan]-1-deoxynojirimycin] | – | > 100 µM | hardly inhibits GCS | – | –
OC[C@@H]1[C@@H](O)[C@H](O)[C@@H](O)CN1CCCCCOCC12CC3CC(CC(C3)C1)C2 [AMP-DNM, N-[5′-(adamantan-1′-yl-methoxy)-pentan]-1-deoxynojirimycin] | – | – | – | up to 30% | rescues a mature and functional delF508-CFTR
OC[C@@H]1[C@@H](O)[C@H](O)[C@@H](O)CN1CCCCCCC12CC3CC(CC(C3)C1)C2 [N-[6′-adamantyl-hexan]-1-deoxynojirimycin] | 0.001 µM | 7.5 µM | – | – | –
